Type in all cases: biochemical
The target of assay [1] is PKC isoform γ (Homo sapiens, UniProt P05129). The assay can be described thus: Protein Kinase C histone-based assay, PKC γ. To be noted: histone III substrate, 30 μM ATP; error approximately within ±30 percent; read-out: PKC Activity, Gamma (IC50, Histone Based Assay). The method, then: (§1) Compounds were evaluated for PKC selectivity using histone III as the substrate. The PKC isoforms α, β-II or γ were added to a reaction mixture that contained 20 mM HEPES, (pH 7.4), 940 μM CaCl2, 10 mM MgCl2, 1 mM EGTA. 100 μg/mL phosphatidylserine, 20 μg/mL diacylglycerol, 30 μM ATP, 1 μCi (^33P)ATP and 200 μg/mL histone III. The reaction was incubated for 10 min at 30° C. Reactions were terminated by TCA precipitation and spotting on Whatman P81 filters. Filters were washed in 75 mM phosphoric acid and the radioactivity quantified by liquid scintillation counting.

Assay [2] concerns the target PKC isoform α (Homo sapiens, UniProt P17252). The assay can be described thus: Protein Kinase C histone-based assay, PKC α. To be noted: histone III substrate, 30 μM ATP; error approximately within ±30 percent; read-out: PKC Activity, Alpha (IC50, Histone Based Assay). The protocol: as §1
For assay [3], the target named is T1, recombinant rabbit GSK-3β (Oryctolagus cuniculus, UniProt G1T8E2).
T1 construct: purchased New England Biolabs
T1 sequence (G1T8E2 1-432): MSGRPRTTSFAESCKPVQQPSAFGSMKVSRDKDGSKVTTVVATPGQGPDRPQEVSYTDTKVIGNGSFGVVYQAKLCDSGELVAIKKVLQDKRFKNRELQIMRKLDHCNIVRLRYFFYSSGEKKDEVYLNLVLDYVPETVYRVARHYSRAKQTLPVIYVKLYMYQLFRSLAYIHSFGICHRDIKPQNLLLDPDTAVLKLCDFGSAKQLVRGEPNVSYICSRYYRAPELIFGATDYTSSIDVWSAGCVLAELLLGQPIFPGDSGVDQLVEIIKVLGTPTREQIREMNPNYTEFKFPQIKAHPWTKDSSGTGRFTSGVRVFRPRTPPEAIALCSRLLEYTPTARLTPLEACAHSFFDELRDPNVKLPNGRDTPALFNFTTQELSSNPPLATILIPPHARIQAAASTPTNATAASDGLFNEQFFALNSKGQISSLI
Kind of assay: Glycogen Synthase Kinase-3 assay (PPI-2 phosphorylation). As to conditions: for IC50: PPI-2 substrate, 33P-ATP, 90 minutes at 30° C. The protocol:
Compounds were tested for the ability to inhibit recombinant rabbit GSK-3β using the following protocol. The test compound was added to a reaction mixture containing Protein phosphatase inhibitor-2 (PPI-2) (Calbiochem) (45 ng), rabbit GSK-3β (New England Biolabs) (0.75 units) and ^33P-ATP (1 μCi) in 50 mM Tris-HCl (pH 8.0), 10 mM MgCl2, 0.1% BSA, 1 mM DTT and 100 μM Sodium Vanadate. The mixture was reacted for 90 minutes at 30° C. to allow phosphorylation of the PPI-2 protein and then the protein in the reaction was precipitated using 10% TCA. The precipitated protein was collected on filter plates (MultiScreen-DV/Millipore), which were subsequently washed. Finally, the radioactivity was quantified using a TopCount Scintillation Counter (Packard). […] Staurosporine or Valproate, known inhibitors of GSK-3β, were used as a positive control for screening.

For assay [4], the target named is PKC isoform β-II (Homo sapiens, UniProt P05771). Kind of assay: Protein Kinase C histone-based assay, PKC β-II. To be noted: histone III substrate, 30 μM ATP; error approximately within ±30 percent; read-out: PKC Activity, Beta II (IC50, Histone Based Assay). The protocol: as §1
PKC isoform β-II, sequence (P05771 1-673 isoform P05771-2): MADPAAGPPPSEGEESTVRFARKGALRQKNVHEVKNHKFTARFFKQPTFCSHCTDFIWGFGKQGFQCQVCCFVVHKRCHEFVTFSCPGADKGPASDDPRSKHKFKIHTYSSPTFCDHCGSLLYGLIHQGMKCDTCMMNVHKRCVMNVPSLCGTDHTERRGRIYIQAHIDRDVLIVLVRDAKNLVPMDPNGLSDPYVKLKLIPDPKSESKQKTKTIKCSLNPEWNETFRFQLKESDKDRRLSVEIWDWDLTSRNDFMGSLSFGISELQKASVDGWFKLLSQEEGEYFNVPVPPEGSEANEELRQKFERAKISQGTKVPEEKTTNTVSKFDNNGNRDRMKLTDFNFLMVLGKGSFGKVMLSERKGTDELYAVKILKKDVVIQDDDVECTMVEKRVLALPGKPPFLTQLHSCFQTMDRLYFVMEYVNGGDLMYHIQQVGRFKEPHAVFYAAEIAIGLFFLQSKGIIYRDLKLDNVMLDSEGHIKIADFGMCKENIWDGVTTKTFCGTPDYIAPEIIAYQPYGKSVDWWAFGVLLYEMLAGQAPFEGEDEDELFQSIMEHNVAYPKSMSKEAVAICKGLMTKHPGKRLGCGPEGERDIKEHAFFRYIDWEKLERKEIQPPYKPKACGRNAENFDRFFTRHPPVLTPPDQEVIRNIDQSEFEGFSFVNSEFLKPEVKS

The structures appear in SMILES notation.

Turning to `O=C1NC(=O)C(c2cn(-c3cccnc3)c3ccccc23)=C1c1cn(CCO)c2ccccc12` [Compound 1, 3-[1-(2-hydroxyethyl)-1H-indol-3-yl]-4-[1-(3-pyridinyl)-1H-indol-3-yl]-1H-pyrrole-2,5-dione], the IC50 in assay [1] stood at 274 nM; in assay [2] it was 64 nM; in assay [3], 25 nM; in assay [4], 6 nM.
As for `O=C1NC(=O)C(c2cn(-c3cncnc3)c3ccccc23)=C1c1cn(CCO)c2ccccc12` [Compound 2, 3-[1-(2-hydroxyethyl)-1H-indol-3-yl]-4-[1-(5-pyrimidinyl)-1H-indol-3-yl]-1H-pyrrole-2,5-dione], the IC50 in assay [1] amounted to 429 nM; in assay [2] it was 228 nM; in assay [3], 8 nM; in assay [4] it was 15 nM.
`O=C1NC(=O)C(c2cn(-c3cnc4ccccc4c3)c3ccccc23)=C1c1cn(CCO)c2ccccc12` [Compound 3, 3-[1-(2-hydroxyethyl)-1H-indol-3-yl]-4-[1-(3-quinolinyl)-1H-indol-3-yl]-1H-pyrrole-2,5-dione]: the IC50 is 784 nM in assay [1], 457 nM in assay [2], 31 nM in assay [3] and 23 nM in assay [4].
On to `O=C1NC(=O)C(c2cn(-c3cccnc3)c3ccccc23)=C1c1cn(CCCO)c2ccccc12` [Compound 4, 3-[1-(3-hydroxypropyl)-1H-indol-3-yl]-4-[1-(3-pyridinyl)-1H-indol-3-yl]-1H-pyrrole-2,5-dione], for which, in assay [3], the IC50 stood at 24 nM.
For `CN(C)CCCn1cc(C2=C(c3cn(-c4csc5ccccc45)c4ccccc34)C(=O)NC2=O)c2ccccc21` [Compound 5, 3-(1-benzo[b]thien-3-yl-1H-indol-3-yl)-4-[1-[3-(dimethylamino)propyl]-1H-indol-3-yl]-1H-pyrrole-2,5-dione], the “GSK-3β Assay Activity, percent at a single concentration” value in assay [3] (@ 1 μM) was found to be 53% @ 1 μM.
Take `CN(C)CCCn1cc(C2=C(c3cn(-c4ccccc4)c4ccccc34)C(=O)NC2=O)c2ccccc21` [Compound 6, 3-[1-[3-(dimethylamino)propyl]-1H-indol-3-yl]-4-(1-phenyl-1H-indol-3-yl)-1H-pyrrole-2,5-dione]: the 50% inhibitory concentration (IC50) in assay [2] amounted to 58 nM; in assay [4] it was 23 nM.
As to `Cn1cc(C2=C(c3cn(-c4cncnc4)c4ccccc34)C(=O)NC2=O)c2ccccc21` [Compound 7, 3-(1-methyl-1H-indol-3-yl)-4-[1-(5-pyrimidinyl)-1H-indol-3-yl]-1H-pyrrole-2,5-dione], the IC50 in assay [3] came to 30 nM.
Take `Cn1cc(C2=C(c3cn(-c4cccnc4)c4ccccc34)C(=O)NC2=O)c2ccccc21` [Compound 8, 3-(1-methyl-1H-indol-3-yl)-4-[1-(3-pyridinyl)-1H-indol-3-yl]-1H-pyrrole-2,5-dione]: the IC50 in assay [3] worked out at 100 nM.
As to `O=C1NC(=O)C(c2cn(-c3cccnc3)c3ccccc23)=C1c1cn(CCn2ncnn2)c2ccccc12` [Compound 9, 3-[1-(3-pyridinyl)-1H-indol-3-yl]-4-[1-[2-(2H-tetrazol-2-yl)ethyl]-1H-indol-3-yl]-1H-pyrrole-2,5-dione], the IC50 in assay [1] is 4950 nM; in assay [2], 910 nM; in assay [3] it was 7 nM; in assay [4], 54 nM.
As to `O=C1NC(=O)C(c2cn(-c3cccnc3)c3ccccc23)=C1c1cn(CCn2cnnn2)c2ccccc12` [Compound 10, 3-[1-(3-pyridinyl)-1H-indol-3-yl]-4-[1-[2-(1H-tetrazol-1-yl)ethyl]-1H-indol-3-yl]-1H-pyrrole-2,5-dione], the concentration for half-maximal inhibition (IC50) in assay [1] stood at 4570 nM; in assay [2], 1010 nM; in assay [3], 17 nM; in assay [4] it was 123 nM.
Turning to `O=C1NC(=O)C(c2cn(-c3cncnc3)c3ccccc23)=C1c1cn(-c2cccnc2)c2ccccc12` [Compound 11, 3-[1-(3-pyridinyl)-1H-indol-3-yl]-4-[1-(5-pyrimidinyl)-1H-indol-3-yl]-1H-pyrrole-2,5-dione], the IC50 was determined as 1440 nM in assay [1], 3040 nM in assay [2], 116 nM in assay [3] and 60 nM in assay [4].

Values taken from US6987110B2, “Substituted pyrrolines as kinase inhibitors” (Janssen Pharmaceutica N.V., priority 2002, dated 2006).
